From article PMC8252718, “carba Nicotinamide Adenine Dinucleotide Phosphate: Robust Cofactor for Redox Biocatalysis” (Angewandte Chemie (International Ed. in English), 2021)

Experiments:
Experiment in all cases: activity assay
Format in all cases: biochemical
[1] = biological target: T1, TsER (Thermus scotoductus, UniProt B0JDW3)
T1 construct: gene chrR; details only in supplement

[2] = biological target: T2, AspRedAm (Aspergillus oryzae, UniProt Q2TW47); settings: 100 mM Tris-HCl pH 8.2, 5 mM hexanal, 10 mM amine, 1 mM cofactor, 30 °C
T2 construct: gene AO090010000708; details only in supplement
T2 sequence (Q2TW47 1-295): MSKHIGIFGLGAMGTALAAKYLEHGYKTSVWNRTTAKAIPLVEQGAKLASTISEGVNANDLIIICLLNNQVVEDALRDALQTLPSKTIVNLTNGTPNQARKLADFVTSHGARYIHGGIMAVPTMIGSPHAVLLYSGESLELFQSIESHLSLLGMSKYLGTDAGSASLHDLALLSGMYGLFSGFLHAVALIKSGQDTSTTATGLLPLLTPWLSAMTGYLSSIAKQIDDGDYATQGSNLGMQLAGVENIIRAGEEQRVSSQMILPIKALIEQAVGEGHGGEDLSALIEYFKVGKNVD

[3] = biological target: T3, CHMO (Acinetobacter johnsonii, UniProt P12015)
T3 construct: gene chnB; details only in supplement
T3 sequence (P12015 whole entry): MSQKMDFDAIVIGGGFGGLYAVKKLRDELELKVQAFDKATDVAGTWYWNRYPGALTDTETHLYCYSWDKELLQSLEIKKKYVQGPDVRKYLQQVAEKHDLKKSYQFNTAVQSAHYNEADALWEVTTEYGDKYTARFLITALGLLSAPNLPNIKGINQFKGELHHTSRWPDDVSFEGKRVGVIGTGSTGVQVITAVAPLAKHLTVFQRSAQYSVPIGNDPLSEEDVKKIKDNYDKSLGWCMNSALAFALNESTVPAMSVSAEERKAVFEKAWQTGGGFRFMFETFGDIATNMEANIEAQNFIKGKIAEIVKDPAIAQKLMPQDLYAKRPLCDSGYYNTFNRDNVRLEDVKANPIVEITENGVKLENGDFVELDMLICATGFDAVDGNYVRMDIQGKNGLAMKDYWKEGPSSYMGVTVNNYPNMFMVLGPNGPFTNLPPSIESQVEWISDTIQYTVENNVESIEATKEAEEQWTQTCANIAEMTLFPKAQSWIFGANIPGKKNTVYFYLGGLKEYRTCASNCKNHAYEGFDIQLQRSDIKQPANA

With `NC(=O)C1=CN([C@@H]2C[C@H](COP(=O)(O)OP(=O)(O)OC[C@H]3O[C@@H](n4cnc5c(N)ncnc54)[C@H](OP(=O)(O)O)[C@@H]3O)[C@@H](O)[C@H]2O)C=CC1` [carba-NADPH] the activity assay [1] was “enoate reductase (TsER from Thermus scotoductus)”, the activity assay [2] was “Both gave comparable results with the natural and carba cofactor” and the activity assay [3] was “two Baeyer‐Villiger‐monoxygenases (CHMO and HAPMO)”.
